The values that follow come from US11123439B2, “Antibody drug conjugates (ADCS) and antibody prodrug conjugates (APDCS) with enzymatically cleavable groups” (Bayer Pharma Aktiengesellschaft, priority 2015, dated 2021).

For the data set, the target named is T1, legumain (Homo sapiens, UniProt Q99538).
T1 construct: purchased R&D Systems 2199-CY
T1 sequence (Q99538 18-323 limits assumed): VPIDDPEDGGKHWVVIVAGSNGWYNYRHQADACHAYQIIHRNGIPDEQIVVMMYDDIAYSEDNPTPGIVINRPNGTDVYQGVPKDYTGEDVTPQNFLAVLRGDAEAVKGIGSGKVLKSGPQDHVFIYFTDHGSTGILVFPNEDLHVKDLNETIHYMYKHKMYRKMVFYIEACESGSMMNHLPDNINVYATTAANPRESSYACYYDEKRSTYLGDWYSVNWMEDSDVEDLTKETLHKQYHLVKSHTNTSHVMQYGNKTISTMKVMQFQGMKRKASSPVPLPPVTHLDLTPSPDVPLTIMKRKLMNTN
Description: Legumain assay (enzymatic cleavage of prodrug). The following applies: recombinant human legumain, rh legumain 1 ng/μl, 50 mM MES buffer, 250 mM NaCl, pH 5.0, read-out: half-life of legumain cleavage to the target compound (converted). In kind it is biochemical. Here is the method:
The legumain assay was conducted with recombinant human enzyme. The rh legumain enzyme solution (catalogue #2199-CY, R&D Systems) was diluted to the desired concentration in 50 mM Na acetate buffer/100 mM NaCl, pH4.0 and preincubated at 37° C. for 2 h. rh legumain was then adjusted to a final concentration of 1 ng/μl in 50 mM MES buffer, 250 mM NaCl, pH 5.0. For every legumain-cleavable prodrug to be examined, a mixture was made up in a micro reaction vessel (0.5 ml, from Eppendorf). For this purpose, the substrate solution was adjusted to the desired concentration (double concentration) with 50 mM MES buffer, 250 mM NaCl, pH 5.0. For the kinetic measurement of the enzymatic reaction, 250 μl of the legumain solution were first initially charged and the enzyme reaction was started by adding 250 μl of the substrate solution (final concentration: single concentration). At different times, 50 μL samples were taken. This sample was admixed immediately with 100 μl of ice-cold methanol in order to stop the enzymatic reaction and then frozen at −20° C. The times selected for sampling were after 0.5 h, 1 h, 3 h and 24 h. The samples were then analysed by means of RP-HPLC analysis and by LC-MS analysis. The determination of the toxophore released enabled the determination of the half-life t1/2 of the enzymatic reaction. […]

Structures are written as SMILES.

For orientation: half-life means the time needed for the level to fall by half in the phase considered. For the compound `CNC(=O)[C@H](CCN(C(=O)CO)[C@@H](c1cc(-c2cc(F)ccc2F)cn1Cc1ccccc1)C(C)(C)C)NC(=O)[C@H](CC(N)=O)NC(=O)[C@H](C)NC(=O)[C@H](C)NC(=O)Cc1ccncc1` [Compound A, N-(Pyridin-4-ylacetyl)-L-alanyl-L-alanyl-N^1-[(2S)-4-[{(1R)-1-[1-benzyl-4-(2,5-difluorophenyl)-1H-pyrrol-2-yl]-2,2-dimethylpropyl}(glycoloyl)amino]-1-(methylamino)-1-oxobutan-2-yl]-L-aspartamide], the half-life was 1.1 h.
